From publication PMC3914206 come the findings set out here.

In assay [1] the target is T1, panel of 442 kinases (Homo sapiens, UniProt P41743).
T1 construct: purchased KINOMEscan
T1 sequence (P41743 1-596): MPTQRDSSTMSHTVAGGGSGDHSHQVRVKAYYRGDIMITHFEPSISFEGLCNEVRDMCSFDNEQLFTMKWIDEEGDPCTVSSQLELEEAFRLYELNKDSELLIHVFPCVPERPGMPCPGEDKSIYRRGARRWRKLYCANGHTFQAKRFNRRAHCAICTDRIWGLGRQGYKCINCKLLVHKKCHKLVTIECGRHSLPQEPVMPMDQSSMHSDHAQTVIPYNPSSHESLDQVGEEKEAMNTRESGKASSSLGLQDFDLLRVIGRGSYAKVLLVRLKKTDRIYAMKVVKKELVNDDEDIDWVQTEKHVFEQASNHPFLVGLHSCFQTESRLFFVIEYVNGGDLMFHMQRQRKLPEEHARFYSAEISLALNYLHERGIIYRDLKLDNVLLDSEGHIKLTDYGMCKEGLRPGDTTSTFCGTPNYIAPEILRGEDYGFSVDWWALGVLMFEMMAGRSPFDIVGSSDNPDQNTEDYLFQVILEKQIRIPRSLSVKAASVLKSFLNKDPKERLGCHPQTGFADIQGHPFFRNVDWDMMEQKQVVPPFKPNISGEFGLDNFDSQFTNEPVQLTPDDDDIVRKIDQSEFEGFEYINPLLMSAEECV
The assay is classed as binding. The conditions noted are these: Compound Concentration 10 µM. The text has this: (§1) We assessed the selectivity of members of this scaffold using the KINOMEscan methodology across a near comprehensive panel of 442 kinases [[18,27]].

Assay [2] has as its target T2, panel of 442 kinases (Homo sapiens, UniProt Q8N752).
T2 construct: purchased KINOMEscan
T2 sequence (Q8N752 1-337): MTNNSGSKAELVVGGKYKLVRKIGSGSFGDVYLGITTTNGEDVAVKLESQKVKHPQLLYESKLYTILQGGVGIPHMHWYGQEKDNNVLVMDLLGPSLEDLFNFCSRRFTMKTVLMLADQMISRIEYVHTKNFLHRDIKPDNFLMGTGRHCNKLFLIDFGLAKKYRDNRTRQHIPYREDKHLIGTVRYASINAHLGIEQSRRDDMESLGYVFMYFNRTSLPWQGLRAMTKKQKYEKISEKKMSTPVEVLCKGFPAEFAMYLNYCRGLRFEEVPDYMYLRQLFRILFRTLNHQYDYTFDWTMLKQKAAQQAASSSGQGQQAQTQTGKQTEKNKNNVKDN
In kind it is binding. The conditions noted are these: Compound Concentration 10 µM.
From the text: as §1

As to `COc1cc(C(=O)N2CCC(N3CCN(C)CC3)CC2)ccc1Nc1ncc2c(n1)N(C)c1ccccc1C(=O)N2C` [15 (LRRK2-IN-1)], on panel of 442 kinases [1], the “KINOMEscan: PRKCI” value worked out at 100. Moreover, the “KINOMEscan: CSNK1A1L” value on panel of 442 kinases [2] stood at 100.

Turning to `COc1cc(C(=O)N2CCC(N3CCN(C)CC3)CC2)ccc1Nc1ncc2c(n1)N(C1CCCC1)c1ccccc1C(=O)N2C` [Compound 25, 11-cyclopentyl-2-((2-methoxy-4-(4-(4-methylpiperazin-1-yl)piperidine-1-carbonyl)phenyl)amino)-5-methyl-5H-benzo[e]pyrimido[5,4-b][1,4]diazepin-6(11H)-one], the “KINOMEscan: PRKCI” value at panel of 442 kinases [1] is on record as 100. On panel of 442 kinases [2], the “KINOMEscan: CSNK1A1L” value came out at 100.

For the compound `CCOc1cc(C(=O)N2CCC(N3CCN(C)CC3)CC2)ccc1Nc1ncc2c(n1)N(C1CCCC1)c1ccccc1C(=O)N2C` [Compound 26], the “KINOMEscan: PRKCI” value on panel of 442 kinases [1] was 95. For the same compound, on panel of 442 kinases [2], the “KINOMEscan: CSNK1A1L” value came to 99.
